The source of these data is ChEMBL document CHEMBL3627634, “Synthesis of novel benzohydrazone-oxadiazole hybrids as β-glucuronidase inhibitors and molecular modeling studies” (Bioorg Med Chem, 2015).

Structures are written as SMILES.

The target in one assay is T1, Beta-glucuronidase (Bos taurus, UniProt A3KMY8).
T1 sequence (A3KMY8 whole entry): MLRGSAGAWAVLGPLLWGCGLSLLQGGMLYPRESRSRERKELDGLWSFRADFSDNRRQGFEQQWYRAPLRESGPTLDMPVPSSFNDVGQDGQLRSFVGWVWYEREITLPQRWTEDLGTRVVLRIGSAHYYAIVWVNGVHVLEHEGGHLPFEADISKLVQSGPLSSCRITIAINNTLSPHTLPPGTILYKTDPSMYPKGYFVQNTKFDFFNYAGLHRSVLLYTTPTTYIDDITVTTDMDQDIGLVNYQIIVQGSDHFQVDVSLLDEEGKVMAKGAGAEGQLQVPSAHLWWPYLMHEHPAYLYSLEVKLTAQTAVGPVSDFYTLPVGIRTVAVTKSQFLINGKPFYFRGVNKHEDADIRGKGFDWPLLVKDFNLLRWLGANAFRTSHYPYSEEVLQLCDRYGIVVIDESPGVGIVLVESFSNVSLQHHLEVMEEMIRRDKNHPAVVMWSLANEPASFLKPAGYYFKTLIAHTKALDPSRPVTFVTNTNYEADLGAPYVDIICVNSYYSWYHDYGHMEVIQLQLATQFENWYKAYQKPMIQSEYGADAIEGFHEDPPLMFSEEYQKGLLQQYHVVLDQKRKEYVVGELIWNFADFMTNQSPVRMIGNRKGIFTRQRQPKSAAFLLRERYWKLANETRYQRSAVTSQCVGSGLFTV
Nature of the assay: Inhibition of bovine liver beta-glucuronidase using p-nitrophenyl-beta-D-glucuronide as substrate assessed as p-nitrophenol formation after 30 mins by multiplate reader analysis.
Details: not given; call rule not given here
Broadly, the IC50 is the point on the concentration scale where inhibition reaches its midpoint. Consider `O=C(N/N=C/c1ccccc1Cl)c1ccc(-c2nnc(-c3ccccc3O)o2)cc1`, for which the IC50 result is “Not Active”.

As for `O=C(N/N=C/c1cccnc1)c1ccc(-c2nnc(-c3ccccc3O)o2)cc1`, the IC50 entry is given as “Not Active”.

Regarding `Cc1cccc(/C=N/NC(=O)c2ccc(-c3nnc(-c4ccccc4O)o3)cc2)c1`, the IC50 result was “Not Active”.

`O=C(N/N=C/c1cccc(Cl)c1)c1ccc(-c2nnc(-c3ccccc3O)o2)cc1`: the IC50 entry is given as “Not Active”.

Regarding `Cc1ccc(/C=N/NC(=O)c2ccc(-c3nnc(-c4ccccc4O)o3)cc2)cc1`, the IC50 result was “Not Active”.

As for `O=C(N/N=C/c1ccccc1[N+](=O)[O-])c1ccc(-c2nnc(-c3ccccc3O)o2)cc1`, the IC50 entry is recorded as “Not Active”.

For the compound `O=C(N/N=C/c1ccc(F)cc1)c1ccc(-c2nnc(-c3ccccc3O)o2)cc1`, the half-maximal inhibitory concentration (IC50) entry is “Not Active”.

Regarding `Cc1ccccc1/C=N/NC(=O)c1ccc(-c2nnc(-c3ccccc3O)o2)cc1`, the half-inhibitory concentration (IC50) result is on record as “Not Active”.

As for `O=C(N/N=C/c1ccncc1)c1ccc(-c2nnc(-c3ccccc3O)o2)cc1`, the IC50 result is “Not Active”.

Take `O=C(N/N=C/c1cccc(F)c1)c1ccc(-c2nnc(-c3ccccc3O)o2)cc1`: the IC50 result was “Not Active”.

`COc1ccccc1/C=N/NC(=O)c1ccc(-c2nnc(-c3ccccc3O)o2)cc1`: the IC50 result is “Not Active”.

Still in this assay, the particulars now being: read-out: IC50.
For the compound `O=C(N/N=C/c1cc(O)ccc1O)c1ccc(-c2nnc(-c3ccccc3O)o2)cc1`, the IC50 turned out to be 15.1 µM.

Consider `O=C(N/N=C/c1ccccn1)c1ccc(-c2nnc(-c3ccccc3O)o2)cc1`, for which the IC50 was 42.3 µM.

Turning to `O=C(N/N=C/c1ccc(O)cc1)c1ccc(-c2nnc(-c3ccccc3O)o2)cc1`, the IC50 was 18.5 µM.

Regarding `COc1ccc(/C=N/NC(=O)c2ccc(-c3nnc(-c4ccccc4O)o3)cc2)cc1O`, the IC50 was 7.14 µM.

For the compound `O=C(N/N=C/c1ccc([N+](=O)[O-])cc1)c1ccc(-c2nnc(-c3ccccc3O)o2)cc1`, the IC50 worked out at 44.2 µM.

As for `O=C(N/N=C/c1cccc(O)c1)c1ccc(-c2nnc(-c3ccccc3O)o2)cc1`, the half-inhibitory concentration (IC50) was found to be 34.5 µM.

As for `O=C(N/N=C/c1ccc(Cl)cc1)c1ccc(-c2nnc(-c3ccccc3O)o2)cc1`, the half-maximal inhibitory concentration (IC50) was 86.1 µM.

Regarding `COc1ccc(O)c(/C=N/NC(=O)c2ccc(-c3nnc(-c4ccccc4O)o3)cc2)c1`, the IC50 worked out at 88.1 µM.

Take `O=C(N/N=C/c1ccccc1F)c1ccc(-c2nnc(-c3ccccc3O)o2)cc1`: the IC50 worked out at 108 µM.

Turning to `O=C(N/N=C/c1ccc(O)c(O)c1)c1ccc(-c2nnc(-c3ccccc3O)o2)cc1`, the IC50 is 29.2 µM.

On to `O=C(N/N=C/c1cc(O)c(O)cc1O)c1ccc(-c2nnc(-c3ccccc3O)o2)cc1`, for which the IC50 stood at 21.1 µM.

For `O=C(N/N=C/c1cccc([N+](=O)[O-])c1)c1ccc(-c2nnc(-c3ccccc3O)o2)cc1`, the IC50 amounted to 64.1 µM.

Turning to `O=C(N/N=C/c1ccccc1O)c1ccc(-c2nnc(-c3ccccc3O)o2)cc1`, the IC50 came out at 91.4 µM.

As for `O=C(N/N=C/c1c(O)cc(O)cc1O)c1ccc(-c2nnc(-c3ccccc3O)o2)cc1`, the IC50 was 82.2 µM.
